Assays:
recombinant human FAK1 = target: T1, recombinant human FAK1 (Homo sapiens, UniProt Q05397); test: FAK1 HTRF assay; assay type: biochemical
T1 construct: fused on or other part: N-terminal 6xHis tag
Procedure, shortened: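 His-tagged human FAK1 (residues 692–end, Sf9-expressed), 10 nM final, with 0.5 μM biotinylated gastrin-precursor Tyr87 peptide and a 10 μM final reagent in pH 7.4 buffer, 45 min at rt. Detection used Eu anti-pTyr antibody plus SA-APC (665/620 nm). Compounds top concentration 10 μM; IC50 from % inhibition.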

Recombinant Src enzyme = target: T2, Recombinant Src enzyme (Homo sapiens, UniProt P12931); test: Src HTRF assay; assay type: biochemical
T2 construct: purchased Millipore 14-326; host or cells: Sf21 insect cells
Experimental: Enzyme assay buffer, supplements, and compounds were prepared as described in the FAK HTRF assay.
Recombinant Src enzyme expressed in Sf21 insect cells was obtained (Millipore, Cat No. 14-326, Lot # D8CN006U-K). A 35 μM stock was used at a final concentration of 5 nM in the assay.
Tyk2 synthetic peptide-Biotinylated-N-terminal tag-[…]
A custom made substrate, a Tyk2 synthetic peptide, biotinylated with an N-terminal tag was obtained (Biopeptide and Sigma, Cat. No. 14918001 VC80021). A 100 μM stock was used at a final concentration of 0.5 μM in the assay.
A 10 mM stock in 100 μL enzyme assay buffer pH7.4 was prepared freshly and used at a final concentration of 10 μM in the assay.
Dasatinib (Bristol-Myers Squibb)
The assay procedure was the same as discussed above.

T2 sequence (P12931 whole entry): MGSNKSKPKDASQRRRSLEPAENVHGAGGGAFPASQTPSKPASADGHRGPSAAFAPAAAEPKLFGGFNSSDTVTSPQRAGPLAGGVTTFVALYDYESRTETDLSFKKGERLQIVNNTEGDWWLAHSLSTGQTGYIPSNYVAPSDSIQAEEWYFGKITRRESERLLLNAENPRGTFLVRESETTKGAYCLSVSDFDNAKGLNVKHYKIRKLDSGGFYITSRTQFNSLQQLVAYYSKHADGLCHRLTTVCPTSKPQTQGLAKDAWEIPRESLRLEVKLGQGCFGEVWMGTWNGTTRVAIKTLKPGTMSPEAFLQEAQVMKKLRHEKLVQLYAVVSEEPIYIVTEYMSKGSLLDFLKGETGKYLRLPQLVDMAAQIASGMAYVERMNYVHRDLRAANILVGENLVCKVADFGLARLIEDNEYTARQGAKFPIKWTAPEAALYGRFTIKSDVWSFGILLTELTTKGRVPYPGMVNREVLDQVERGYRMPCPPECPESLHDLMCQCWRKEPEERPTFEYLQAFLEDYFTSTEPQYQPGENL
T1 sequence (Q05397 422-680 limits assumed): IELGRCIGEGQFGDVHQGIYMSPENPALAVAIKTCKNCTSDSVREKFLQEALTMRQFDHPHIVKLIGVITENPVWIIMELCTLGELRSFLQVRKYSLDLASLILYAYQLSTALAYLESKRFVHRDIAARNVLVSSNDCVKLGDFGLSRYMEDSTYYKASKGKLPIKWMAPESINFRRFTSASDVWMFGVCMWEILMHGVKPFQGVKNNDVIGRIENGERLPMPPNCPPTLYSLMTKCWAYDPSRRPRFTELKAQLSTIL

| Compound | IC50 (recombinant human FAK1) | IC50 (Recombinant Src enzyme) |
| --- | --- | --- |
| O=C1CCc2cc(Nc3ncc4ccn(S(=O)(=O)c5cccc(OC(F)(F)F)c5)c4n3)ccc2N1 [Example 45] | > 1 µM | > 1 µM |
| COc1ccccc1S(=O)(=O)n1ccc2cnc(Nc3cncnc3)nc21 [Example 146] | > 1 µM | > 1 µM |
| CC(=O)Nc1ccc(S(=O)(=O)n2ccc3cnc(Nc4ccc(CC#N)cc4)nc32)cc1 [Example 183] | > 1 µM | > 1 µM |
| CN(c1ncccc1Cn1cc2cnc(Nc3ccc4c(c3)CCC(=O)N4)nc2n1)S(C)(=O)=O [Example 190] | > 1 µM | > 1 µM |
| CN(c1ncccc1Cn1ccc2cnc(Nc3ccc4c(c3)NC(=O)CC4)nc21)S(C)(=O)=O [Example 209] | < 0.02 µM | < 0.02 µM |
| O=C1CCc2cc(Nc3ncc4ccn(S(=O)(=O)c5cccc6ccccc56)c4n3)ccc2N1 [Example 223] | < 0.02 µM | < 0.02 µM |
| CN(c1ncccc1Cn1ccc2cnc(Nc3ncccn3)nc21)S(C)(=O)=O [Example 227] | > 1 µM | > 1 µM |
| O=C1CCc2cc(Nc3ncc4cnn(S(=O)(=O)c5cccc6cccnc56)c4n3)ccc2N1 [Example 228] | < 0.02 µM | < 0.02 µM |
| N#Cc1ccccc1Nc1ncc2ccn(S(=O)(=O)c3cccc4cccnc34)c2n1 [Example 359] | < 0.02 µM | > 1 µM |
| COc1cc(N2CCNCC2)ccc1Nc1ncc2ccn(S(=O)(=O)c3cc(C)cc4cccnc34)c2n1 [Example 360] | < 0.02 µM | > 1 µM |
| O=S(=O)(c1cccc2cccnc12)n1ccc2cnc(Nc3ccc(N4CCNCC4)cc3OC3CCC3)cc21 [Example 362] | > 1 µM | > 1 µM |
| Cc1cc(Nc2cc3c(cn2)cnn3S(=O)(=O)c2cccc3cccnc23)ccc1N1CCOCC1 [Example 374] | < 0.02 µM | > 1 µM |
| CN(c1ncccc1Cn1ccc2cnc(Nc3ccc(N4CCC(O)CC4)cc3)cc21)S(C)(=O)=O [Example 384] |  | > 1 µM |
| CN(c1ccccc1Cn1ccc2cnc(Nc3ccc(N4CCOCC4)cc3)cc21)S(C)(=O)=O [Example 385] | < 0.02 µM | > 1 µM |
| CN(c1ncccc1Cn1ccc2cnc(Nc3ccc(N4CCN(CCO)CC4)cc3)cc21)S(C)(=O)=O [Example 393] |  | > 1 µM |
| COc1cc(N2CCC(O)CC2)ccc1Nc1cc2c(cn1)cnn2S(=O)(=O)c1cccc2cccnc12 [Example 396] | < 0.02 µM | > 1 µM |
| Cc1ccnc2c(S(=O)(=O)n3ccc4cnc(Nc5ccc(N6CCC(O)CC6)cc5)nc43)cccc12 [Example 402] |  | > 1 µM |
| COc1cc(N2CCN(C)CC2)ccc1Nc1cc2c(ccn2S(=O)(=O)c2cccc3cccnc23)cn1 [Example 407] | < 0.02 µM | > 1 µM |
| N#Cc1ccccc1S(=O)(=O)n1ccc2cnc(Nc3ccc(N4CCC(O)CC4)cc3)cc21 [Example 414] | < 0.02 µM | > 1 µM |
| O=S(=O)(c1cccc2cccnc12)n1ccc2cnc(Nc3ccc(N4CCNCC4)cc3Cl)nc21 [Example 418] | < 0.02 µM | > 1 µM |
| COc1cc(N2CCN(C)CC2)ccc1Nc1ncc2ccn(Cc3ccccc3N(C)S(C)(=O)=O)c2n1 [Example 424] | < 0.02 µM | > 1 µM |
| COc1cc(N2CCC(OC)CC2)ccc1Nc1cc2c(ccn2S(=O)(=O)c2cccc3cccnc23)cn1 [Example 430] | < 0.02 µM | > 1 µM |
| CN(c1ncccc1CN1CCc2cnc(Nc3ccc(N4CCNCC4)cc3)nc21)S(C)(=O)=O [Example 433] |  | > 1 µM |
| Cc1cc(Nc2ncc3ccn(Cc4ccccc4N(C)S(C)(=O)=O)c3n2)ccc1N1CCNCC1 [Example 447] | < 0.02 µM | < 0.02 µM |
| C[C@H]1CNCCN1c1ccc(Nc2cc3c(ccn3S(=O)(=O)c3ccccc3C#N)cn2)cc1 [Example 477] |  | > 1 µM |

| Compound | IC50 (recombinant human FAK1) | IC50 (Recombinant Src enzyme) |
| --- | --- | --- |
| COc1cc(C(=O)N2CCOCC2)ccc1Nc1ncc2ccn(Cc3ccccc3N(C)S(C)(=O)=O)c2n1 [Example 503] |  | > 1 µM |
| CC1(C)CN(S(=O)(=O)c2cccc3cccnc23)c2nc(Nc3ccc4c(c3)CC(=O)N4)ncc21 [Example 511] |  | > 1 µM |
| C[C@H]1CN(c2ccc(Nc3ncc4ccn(Cc5ccccc5N(C)S(C)(=O)=O)c4n3)nc2)CCN1 [Example 565] |  | > 1 µM |
| CN(C)C1CN(c2ccc(Nc3ncc4c(n3)N(S(=O)(=O)c3cccc5cccnc35)CC4(C)C)cc2)C1 [Example 603] |  | > 1 µM |
| C[C@H]1CN(c2ccc(Nc3cc4c(ccn4Cc4cccnc4N(C)S(C)(=O)=O)cn3)cc2)CCN1 [Example 616] |  | > 1 µM |
| CC1(C)CN(S(=O)(=O)c2cccc3cccnc23)c2nc(Nc3ccc(N4CCC(CO)CC4)cc3)ncc21 [Example 625] |  | > 1 µM |
| COc1cc(Nc2ncc3c(n2)N(S(=O)(=O)c2cccc4cccnc24)CC3(C)C)ccc1N1CCN[C@@H](C)C1 [Example 627] |  | > 1 µM |
| COc1ccc(Cn2ccc3cnc(Nc4ccc(N5CCN[C@H](C)C5)cc4)nc32)c(N(C)S(C)(=O)=O)c1 [Example 671] |  | > 1 µM |
| CC1(C)CN(S(=O)(=O)c2cccc3cccnc23)c2nc(Nc3ccc(NC4CCNCC4)cc3)ncc21 [Example 673] |  | > 1 µM |
| C[C@H]1CN(c2ccc(Nc3ncc4ccn(Cc5ccc(C#N)cc5N(C)S(C)(=O)=O)c4n3)cc2)CCN1 [Example 685] |  | > 1 µM |
| CN(C)C1CCN(c2ccc(Nc3ncc4ccn(Cc5ccc(C#N)cc5N(C)S(C)(=O)=O)c4n3)cc2)CC1 [Example 689] |  | > 1 µM |
| COc1ccc(Cn2ccc3cnc(Nc4ccc(N5CCN[C@@H](C)C5)cc4)nc32)c(N(C)S(C)(=O)=O)c1 [Example 714] |  | > 1 µM |
| Cc1cn(Cc2cccnc2N(C)S(C)(=O)=O)c2nc(Nc3ccc(N4CCNCC4)cc3)ncc12 [Example 719] |  | > 1 µM |
| CN(c1ncccc1Cn1cc(F)c2cnc(Nc3ccc(N4CCNCC4)cc3)nc21)S(C)(=O)=O [Example 722] |  | > 1 µM |
| CN(C)C1CCN(c2ccc(Nc3ncc4c(C#N)cn(Cc5cccnc5N(C)S(C)(=O)=O)c4n3)cc2)CC1 [Example 728] |  | > 1 µM |
| CN(c1ccccc1Cn1cc(C#N)c2cnc(Nc3ccc(N4CCNCC4)cc3)nc21)S(C)(=O)=O [Example 731] |  | > 1 µM |
| CN1c2c(Cn3ccc4cnc(Nc5ccc(N6CCNCC6)cc5)nc43)cccc2CS1(=O)=O [Example 756] |  | > 1 µM |
| CC1(C)CN(S(=O)(=O)c2cccc3ccccc23)c2nc(Nc3ccc(N4CCNCC4)cc3)ncc21 [Example 760] |  | > 1 µM |
| C[C@H]1CN(c2ccc(Nc3ncc4ccn(Cc5cccc6c5N(C)S(=O)(=O)C6)c4n3)cc2)CCN1 [Example 764] |  | > 1 µM |
| CC1(C)CN(S(=O)(=O)c2cccc3cccnc23)c2nc(Nc3ccc(N4CCN(C5CC5)CC4)cc3)ncc21 [Example 771] |  | > 1 µM |
| COc1ccc(Cn2ccc3cnc(Nc4ccc(N5CCNCC5)cc4)nc32)c(N(C)S(C)(=O)=O)c1 [Example 772] |  | > 1 µM |
| CC(c1ccccc1N(C)S(C)(=O)=O)n1ccc2cnc(Nc3ccc(N4CCN[C@H](C)C4)cc3)nc21 (stereo partly shown) [Example 779] |  | > 1 µM |
| C[C@H]1CN(c2ccc(Nc3cc4c(cn3)cnn4Cc3cccnc3N(C)S(C)(=O)=O)cc2)CCN1 [Example 781] |  | > 1 µM |
| C[C@H]1CN(c2ccc(Nc3ncc4nnn(Cc5cccnc5N(C)S(C)(=O)=O)c4n3)cc2)CCN1 [Example 790] |  | > 1 µM |
| CC(c1ccccc1Cn1ccc2cnc(Nc3ccc(N4CCC(N(C)C)CC4)cc3)nc21)S(C)(=O)=O (stereo not shown) [Example 791] |  | > 1 µM |

— patent US20160222014A1, “COMPOUNDS FOR REGULATING FAK AND/OR SRC PATHWAYS” (ASANA BIOSCIENCES, LLC, priority 2013, published 2016)
